These are literature values, as cited in patent publication US20260263483A1, “LOW DOSE THERAPEUTIC SUPPLEMENT TO MODULATE CYTOKINES” (VIRBAC CORPORATION, priority 2023, published 2026).

SMILES strings stand for the structures. Like-named read-outs stand apart in the source and are kept apart here.

Data set [1] deals with diabetic rats. The following applies: 60 mg/kg p.o., five weeks.
Data set [2] concerns silicotic rats.
Data set [3] deals with Wistar albino rats. The following applies: gentamicin-induced renal damage, oral 2, 5 and 10 mg/kg in 14% DMSO.
For data set [4], the target named is TGF-β1. The following applies: Balb/c 3T3 cells.
The conditions of data set [5]: rats, administrated orally.
Data set [6] deals with diabetic rats.
For data set [7], the system named is hepatic stellate cells (HSCs).

In the case of `CC1(C)CC[C@]2(C(=O)O)CC[C@]3(C)C(=CC[C@@H]4[C@@]5(C)CC[C@H](O)C(C)(C)[C@@H]5CC[C@]43C)[C@@H]2C1` [oleanolic acid], the kidney function result in data set [1] is on record as “ameliorates kidney function”. Further, in data set [2], the “expression of cytokines and collagen” value is “decrease the expression of cytokines and collagen”.
For `C[C@H]1[C@H](C)CC[C@]2(C(=O)O)CC[C@]3(C)C(=CC[C@@H]4[C@@]5(C)CC[C@H](O)C(C)(C)C5CC[C@]43C)[C@H]12` (some centres unmarked) [ursolic acid], the reno-protective effect entry in data set [3] is “reno-protective effect”. Moreover, the “concentration that inhibits the specific binding of TGF-β 1 by 50%” value in data set [4] is 3.0 µg/mL. Moreover, in data set [5], the “ingested ursolic acid recovered in plasma” value is reported as “about 0.6%”. In addition, the “protective effects on diabetic rats” value in data set [6] (high-dose, 50 mg/kg) is “significant protective effects”; in data set [6] (low-dose, 25 mg/kg), “significant protective effects”.
Take `C=C(C)[C@@H]1CC[C@]2(CO)CC[C@]3(C)[C@H](CC[C@@H]4[C@@]5(C)CC[C@H](O)C(C)(C)[C@@H]5CC[C@]43C)[C@@H]12` [betulin]: the “ethanol-induced activation of hepatic stellate cells” value in data set [7] is “inhibited”.
